Reference: paper PMC8861050, “Design, synthesis and evaluation of novel 2-oxoindoline-based acetohydrazides as antitumor agents” (Scientific Reports, 2022)

Columns and labels:
U937 cells = assay: Annexin V-FITC/PI apoptosis assay; assay type: cell-based, human; settings: 24 h
Experimental: The Annexin V-FITC/PI dual staining assay was used to determine the percentage of apoptotic cells. U937 cells (5 × 10^5/mL per well) were plated in 6-well culture plates and allowed to grow for 24 h. In our first experiment, we examined the effects of 4f, 4h, 4n, 4o, 4p, and PAC-1 on apoptosis at 50 µM. In the second experiment, we examined the dose-dependent effect of 4o at 5, 10, and 30 µM and PAC-1 at 30 µM on apoptosis. The cells were treated with compounds for 24 h, and then harvested. The harvested cells were washed twice with ice-cold PBS and incubated in the dark at room temperature in […] of 1 × binding buffer containing 1 µL Annexin V-FITC and […] PI. After 15 min incubation, cells were analyzed for percentage undergoing apoptosis using a FACScalibur flow cytometer (BD Biosciences). The data were processed using Cell Quest Pro software (BD Biosciences).
Figure 5 Apoptosis (Annexin V/PI) analysis of cells after treatment with some compounds. U937 cells were treated with compounds (50 µM) for 24 h. The harvested cells were incubated with Annexin V-FITC and PI and analyzed by using flow cytometry. Ten thousand cells were acquired (n = 3). UN untreated, VH vehicle (DMSO. 0.1%). Representative dot plots (A). Live cells, left down in dot plot. Early apoptotic cells, right down. Necrotic cells, left up, Late apoptotic cells, right up. Bar graph of late apoptotic cells (B). p values were calculated using one-way ANOVA in GraphPad Software (San Diego, CA, USA). *p < 0.01 vs VH control. TEXT PRINTED IN THE PICTURE: (A) PAC-1: 10.40%; 29.30%; 12.70% | (A) 4f: 0.52%; 6.05%; 5.41% | (A) 4h: 0.89%; 13.20%; 7.67% | (A) 4n: 0.44%; 6.83%; 5.73% | (A) 4o: 0.67%; 17.30%; 8.17% | (A) 4p: 1.60%; 13.00%; 5.86% DOUBTS OF THE COPYIST ABOUT THIS PICTURE: The quadrant percentages are in small italic print over the dot plots, so 3, 5, 6, 8 and 9 cannot always be told apart. All values given are best readings. / PAC-1: 10.40%, 29.30% and 12.70% are best readings (29.30 could be 28.30) / 4f: 0.52%, 6.05% and 5.41% are best readings (6.05 could be 6.06 or 8.05) / 4h: 0.89%, 13.20% and 7.67% are best readings (0.89 could be 0.86 or 0.69) / 4n: 0.44%, 6.83% and 5.73% are best readings (6.83 could be 6.63 or 6.88) / 4o: 0.67%, 17.30% and 8.17% are best readings (8.17 could be 6.17) / 4p: 1.60%, 13.00% and 5.86% are best readings (5.86 could be 5.88 or 5.66) / The picture prints no measure for the percentages; only their quadrant position tells them apart. They are listed upper left, upper right, lower right. / The plots UN (0.70%, 2.31%, 3.03%) and VH (1.75%, 2.43%, 3.57%) are controls, not substances, and are left out of the lines.
Figure 6 Apoptosis (Annexin V/PI) analysis of cells after treatment with different concentrations of compound 4o. U937 cells were treated with compound 4o at 5, 10 and 30 µM or PAC-1 (30 µM) for 24 h. The harvested cells were incubated with Annexin V-FITC and PI and analyzed by using flow cytometry. Ten thousand cells were acquired (n = 3). UN untreated, VH vehicle (DMSO. 0.1%). Representative dot plots (A). Live cells, left down in dot plot. Early apoptotic cells, right down. Necrotic cells, left up, Late apoptotic cells, right up. Bar graph of late apoptotic cells (B). p values were calculated using one-way ANOVA in GraphPad Software (San Diego, CA, USA). *p < 0.01 vs VH control.

[1] = tested on: U937 human lymphoma cells; assay: Cell cycle analysis (PI, flow cytometry); assay type: cell-based; settings: 24 h
Experimental: U937 human lymphoma cells (5 × 10^5/mL per well) were plated in 6-well culture plates and allowed to grow for 24 h. In our first experiment, we examined the effects of 4f, 4h, 4n, 4o, 4p, and PAC-1 on cell cycles at 50 µM. In the second experiment, we examined the dose-dependent effect of 4o at 5, 10, and 30 µM and PAC-1 at 30 µM on cell cycles. The cells were treated with compounds for 24 h, and then harvested. The harvested cells were washed twice with ice-cold PBS, fixed in 75% ice-cold ethanol, and stained with propidium iodide (PI) in the presence of RNase at room temperature for 30 min. The stained cells were analyzed for DNA content using a FACScalibur flow cytometer (BD Biosciences, San Jose, CA, USA) and the data were processed using Cell Quest Pro software (BD Biosciences).
Figure 3 Cell cycle analysis after treatment with some compounds. U937 human lymphoma cells were treated with compounds (50 µM) for 24 h. The harvested cells were stained with propidium iodide (PI) in the presence of RNase and then were analyzed for DNA content by using flow cytometry. Ten thousand cells were acquired (n = 3). UN untreated, VH vehicle (DMSO. 0.1%). Representative histograms (A) and bar graphs (B) are shown. p values were calculated using one-way ANOVA in GraphPad Software (San Diego, CA, USA). *p < 0.01 vs VH control.
Figure 4 Cell cycle analysis under treatment with different concentrations of compound 4o. U937 human lymphoma cells were treated with compound 4o at 5, 10 and 30 µM or PAC-1 (30 µM) for 24 h. The harvested cells were stained with propidium iodide (PI) in the presence of RNase and then were analyzed for DNA content by using flow cytometry. Ten thousand cells were acquired (n = 3). UN untreated, VH vehicle (DMSO. 0.1%). Representative histograms (A) and bar graphs (B) are shown. p values were calculated using one-way ANOVA in GraphPad Software (San Diego, CA, USA). *p < 0.01 vs VH control.

SMILES: COc1ccc(/C=N/NC(=O)CN2C(=O)Cc3cc(F)ccc32)c(O)c1 [Compound 4o, (E)-N'-(2-Hydroxy-4-methoxybenzylidene)-2-(5-fluoro-2-oxoindolin-1-yl)acetohydrazide]
- Late apoptotic cell population, dose dependence (U937 cells; U937, 5 µM): increased late apoptotic cell population
- Apoptotic effects compared among the representative compounds (U937 cells; U937, 50 µM): more prominent
- Induction of apoptosis (Annexin V-FITC/PI) (U937 cells; U937, 50 µM): induced early, and more substantially, late apoptosis
- melting point: 186 to 187 °C
- Effect on cell cycle, dose dependence ([1]; 5 µM): inhibited cell cycles
- Effect on cell cycle distribution ([1]; 50 µM): accumulated U937 cells in the S phase
